Reference: ChEMBL document CHEMBL1201862, “PubChem BioAssay data set” (2004)
Where “and” joins values, the source holds several entries; their conditions need not be identical. Identical values can stand only once. Calls of active or inactive are those of the source.

Experiments:
Cytochrome P450 3A4 = Cytochrome P450 3A4 (Homo sapiens, UniProt P08684);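 note: CYP3A4 tested as one member of a cytochrome P450 panel screen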
Cytochrome P450 2C19 = Cytochrome P450 2C19 (Homo sapiens, UniProt P33261); test: Cytochrome panel assay with activity outcomes. Panel member name: p450-cyp2c19 Compounds with AC50 equal or less than 10 uM are considered active; assay type: functional
Sequence of Cytochrome P450 2C19 (P33261 whole entry): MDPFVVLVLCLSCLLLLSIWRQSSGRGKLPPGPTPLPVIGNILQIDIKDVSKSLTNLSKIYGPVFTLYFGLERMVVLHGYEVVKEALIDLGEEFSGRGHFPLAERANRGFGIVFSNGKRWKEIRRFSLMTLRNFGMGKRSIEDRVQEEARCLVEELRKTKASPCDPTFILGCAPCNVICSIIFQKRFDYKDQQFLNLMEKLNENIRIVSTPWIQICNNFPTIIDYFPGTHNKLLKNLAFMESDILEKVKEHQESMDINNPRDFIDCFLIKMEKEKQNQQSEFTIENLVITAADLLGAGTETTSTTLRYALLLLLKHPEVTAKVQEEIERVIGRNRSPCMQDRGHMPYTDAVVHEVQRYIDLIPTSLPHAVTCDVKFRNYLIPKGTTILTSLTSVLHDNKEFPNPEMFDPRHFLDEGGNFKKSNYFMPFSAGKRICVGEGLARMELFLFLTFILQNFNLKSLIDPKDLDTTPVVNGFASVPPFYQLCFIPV

[1] = biological target: T1, Heat shock factor protein 1 (Mus musculus, UniProt P38532); test: HSF1 potentiators in luciferase reporter cells, confirmation, cell-based, NIH3T3, luminescence, dose retest (AID 435004); assay type: functional;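 note: stress induced by proteasome inhibitor MG132 added 30 min after compound; luciferase reporter driven by HSF1 response element in NIH3T3 cells; actives raise luminescence as potentiators of the MG132 stress response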
T1 sequence (P38532 whole entry): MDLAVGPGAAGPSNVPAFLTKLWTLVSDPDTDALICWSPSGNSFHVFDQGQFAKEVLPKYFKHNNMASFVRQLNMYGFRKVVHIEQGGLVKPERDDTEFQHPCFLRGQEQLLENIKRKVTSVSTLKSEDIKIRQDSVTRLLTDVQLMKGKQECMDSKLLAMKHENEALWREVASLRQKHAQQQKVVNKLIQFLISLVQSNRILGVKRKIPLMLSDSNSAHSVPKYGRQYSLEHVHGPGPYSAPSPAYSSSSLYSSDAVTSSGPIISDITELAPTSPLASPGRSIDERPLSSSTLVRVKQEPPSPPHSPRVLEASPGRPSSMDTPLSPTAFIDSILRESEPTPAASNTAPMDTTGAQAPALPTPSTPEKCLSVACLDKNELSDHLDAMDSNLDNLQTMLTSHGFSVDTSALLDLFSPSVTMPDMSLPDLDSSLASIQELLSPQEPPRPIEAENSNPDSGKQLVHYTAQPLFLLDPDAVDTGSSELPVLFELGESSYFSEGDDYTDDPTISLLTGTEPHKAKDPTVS

Cytochrome P450 2D6 = Cytochrome P450 2D6 (Homo sapiens, UniProt P10635);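 note: CYP2D6 member of a cytochrome P450 panel assay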
Sequence of Cytochrome P450 2D6 (P10635 whole entry): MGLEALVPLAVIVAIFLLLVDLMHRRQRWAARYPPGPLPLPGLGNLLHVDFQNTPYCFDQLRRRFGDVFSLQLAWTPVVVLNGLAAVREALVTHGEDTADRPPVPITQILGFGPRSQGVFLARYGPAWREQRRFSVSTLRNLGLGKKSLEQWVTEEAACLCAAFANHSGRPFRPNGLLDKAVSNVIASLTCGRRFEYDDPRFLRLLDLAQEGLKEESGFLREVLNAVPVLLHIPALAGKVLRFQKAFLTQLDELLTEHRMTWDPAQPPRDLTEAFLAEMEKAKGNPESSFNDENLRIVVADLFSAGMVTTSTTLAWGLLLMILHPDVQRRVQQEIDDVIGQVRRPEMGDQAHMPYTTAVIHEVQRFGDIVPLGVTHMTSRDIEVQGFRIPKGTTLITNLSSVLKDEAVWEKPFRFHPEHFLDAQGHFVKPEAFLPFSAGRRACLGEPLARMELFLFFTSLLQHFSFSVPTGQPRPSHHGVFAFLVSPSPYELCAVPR

[2] = biological target: T2, Rac GTPase-activating protein 1 (Homo sapiens, UniProt Q9H0H5); test: MgcRacGAP GTPase-activating activity inhibitors, confirmation, biochemical, ADP Hunter fluorescence, primary and confirmatory (AID 624330); assay type: functional
T2 sequence (Q9H0H5 whole entry): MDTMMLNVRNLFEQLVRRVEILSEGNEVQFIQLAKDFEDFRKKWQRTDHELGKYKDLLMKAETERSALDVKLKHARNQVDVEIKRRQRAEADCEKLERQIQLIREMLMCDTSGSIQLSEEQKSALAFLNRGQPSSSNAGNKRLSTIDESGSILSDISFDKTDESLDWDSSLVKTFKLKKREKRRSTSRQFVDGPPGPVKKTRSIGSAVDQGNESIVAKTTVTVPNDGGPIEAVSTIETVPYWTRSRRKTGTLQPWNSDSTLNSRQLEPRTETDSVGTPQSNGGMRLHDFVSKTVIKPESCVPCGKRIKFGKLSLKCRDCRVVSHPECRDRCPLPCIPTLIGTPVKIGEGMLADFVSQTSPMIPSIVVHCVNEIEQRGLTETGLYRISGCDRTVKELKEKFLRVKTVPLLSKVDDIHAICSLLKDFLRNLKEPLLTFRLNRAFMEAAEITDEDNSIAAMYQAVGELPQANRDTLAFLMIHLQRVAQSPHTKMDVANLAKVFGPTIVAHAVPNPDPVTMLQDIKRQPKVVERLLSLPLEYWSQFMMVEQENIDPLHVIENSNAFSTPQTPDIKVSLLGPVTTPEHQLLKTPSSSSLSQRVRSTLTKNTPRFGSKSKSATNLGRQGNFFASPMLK

INS1 = test: beta cell apoptosis inhibitors, cytokine rescue, dose response, luminescence, retest (AID 449756); assay type: functional, cell-based; details: Rattus norvegicus;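 note: cell death triggered by IL-1 beta plus TNF-alpha plus IFN-gamma mixture; protective hits raise ATP signal compared with cytokine alone wells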
[3] = Luminescence Cell-Based Dose Response HTS to Identify Inhibitors of 5'UTR Stem-Loop Driven Prion Protein mRNA Translation in H4 Neuroglioblastoma Cells. [Related pubchem assays: 1827 (Project Summary), 1813 (Primary HTS)]; assay type: functional
[4] = inhibitors of SNCA 5'UTR-driven reporter translation, confirmation, H4 neuroglioma cells, luminescence (AID 1988); assay type: functional, cell-based
[5] = inhibitors of firefly luciferase expression or activity, dose response, H4 neuroglioma cells, luminescence (AID 1990); assay type: functional, cell-based
[6] = Luminescence Cell-Based Dose Confirmation HTS to Identify Activators of 5'UTR Stem-Loop Driven Alpha-Synuclein mRNA Translation in H4 Neuroglioblastoma Cells. [Related pubchem assays: 1829 (Project Summary), 1814 (Primary HTS)]; assay type: functional
[7] = Luminescence Cell-Based Dose Response HTS to Identify Activators of Luciferase Translation or Activity in H4 […] Cells. [Related pubchem assays: 1829 (Project Summary), 1814 (Primary HTS)]; assay type: functional
H4 = test: Luminescence Cell-Based Dose Response HTS to Identify Activators of 5'UTR Stem-Loop Driven Prion Protein mRNA Translation in H4 Neuroglioblastoma Cells. [Related pubchem assays: 1829 (Project Summary), 1814 (Primary HTS)]; assay type: functional; details: Homo sapiens
[8] = biological target: FAD-linked sulfhydryl oxidase ALR (Homo sapiens, UniProt P55789); test: inhibitors of human ALR sulfhydryl oxidase, dose response, biochemical, H2O2 detection, luminescence, cherry-pick (AID 493248)
Sequence of FAD-linked sulfhydryl oxidase ALR (P55789 whole entry): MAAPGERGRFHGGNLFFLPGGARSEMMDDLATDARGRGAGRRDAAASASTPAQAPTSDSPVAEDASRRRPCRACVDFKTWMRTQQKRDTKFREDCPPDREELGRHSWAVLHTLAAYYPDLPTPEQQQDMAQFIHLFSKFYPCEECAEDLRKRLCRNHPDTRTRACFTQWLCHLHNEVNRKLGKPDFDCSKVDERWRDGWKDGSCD

Cytochrome P450 2C9 = Cytochrome P450 2C9 (Homo sapiens, UniProt P11712)
Sequence of Cytochrome P450 2C9 (P11712 whole entry): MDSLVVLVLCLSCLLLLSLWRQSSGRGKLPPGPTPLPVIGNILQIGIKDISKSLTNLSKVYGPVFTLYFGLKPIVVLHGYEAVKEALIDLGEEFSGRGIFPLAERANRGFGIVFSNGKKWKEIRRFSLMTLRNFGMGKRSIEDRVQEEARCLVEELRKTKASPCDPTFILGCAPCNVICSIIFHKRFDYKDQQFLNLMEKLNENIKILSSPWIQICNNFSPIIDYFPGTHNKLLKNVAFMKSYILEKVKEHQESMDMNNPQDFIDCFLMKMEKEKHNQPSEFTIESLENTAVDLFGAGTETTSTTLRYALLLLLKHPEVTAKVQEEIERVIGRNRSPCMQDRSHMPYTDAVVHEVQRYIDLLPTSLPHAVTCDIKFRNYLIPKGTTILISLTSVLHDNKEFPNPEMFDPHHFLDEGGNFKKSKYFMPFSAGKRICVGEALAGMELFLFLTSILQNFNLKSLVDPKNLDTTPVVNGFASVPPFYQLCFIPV

Cytochrome P450 1A2 = biological target: T3, Cytochrome P450 1A2 (Homo sapiens, UniProt P05177);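 note: PubChem cytochrome P450 panel assay, CYP1A2 panel member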
T3 sequence (P05177 whole entry): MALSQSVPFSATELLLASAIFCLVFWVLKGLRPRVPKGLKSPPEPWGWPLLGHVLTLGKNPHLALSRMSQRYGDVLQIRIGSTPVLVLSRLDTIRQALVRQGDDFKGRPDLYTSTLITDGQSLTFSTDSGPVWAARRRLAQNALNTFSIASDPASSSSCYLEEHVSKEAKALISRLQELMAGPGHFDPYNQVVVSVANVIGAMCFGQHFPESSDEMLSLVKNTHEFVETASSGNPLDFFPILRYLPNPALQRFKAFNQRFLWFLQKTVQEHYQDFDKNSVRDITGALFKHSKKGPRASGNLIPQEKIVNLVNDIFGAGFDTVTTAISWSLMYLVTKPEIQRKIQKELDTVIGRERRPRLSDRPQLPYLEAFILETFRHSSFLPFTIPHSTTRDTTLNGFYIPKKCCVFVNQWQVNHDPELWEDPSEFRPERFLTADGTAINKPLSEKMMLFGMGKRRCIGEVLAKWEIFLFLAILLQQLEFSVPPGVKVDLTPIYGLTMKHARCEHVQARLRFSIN

Sequence of Cytochrome P450 3A4 (P08684 whole entry): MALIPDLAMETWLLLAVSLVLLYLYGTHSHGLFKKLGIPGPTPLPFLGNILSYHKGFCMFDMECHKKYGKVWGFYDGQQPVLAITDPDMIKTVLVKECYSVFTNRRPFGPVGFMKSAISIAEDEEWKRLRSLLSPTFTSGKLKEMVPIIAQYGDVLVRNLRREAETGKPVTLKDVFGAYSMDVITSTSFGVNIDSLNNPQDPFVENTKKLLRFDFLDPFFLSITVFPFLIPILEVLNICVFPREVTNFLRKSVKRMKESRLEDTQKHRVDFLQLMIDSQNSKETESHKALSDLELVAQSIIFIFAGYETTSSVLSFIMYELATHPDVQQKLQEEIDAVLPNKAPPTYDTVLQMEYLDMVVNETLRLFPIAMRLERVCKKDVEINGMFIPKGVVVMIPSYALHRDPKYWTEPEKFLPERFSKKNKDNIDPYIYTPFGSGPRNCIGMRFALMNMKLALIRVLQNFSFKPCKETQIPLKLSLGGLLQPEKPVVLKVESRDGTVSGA

CCCCn1c(=N)n(CC(=O)c2ccco2)c2ccccc21
AC50 (Cytochrome P450 3A4): 31.6 µM (inconclusive) | AC50 (Cytochrome P450 2C19; read-out: AC50): 15.8 µM (inconclusive)

O=C1c2ccccc2C(=O)N1CC(O)COc1ccc(Br)cc1 (stereo unspecified)
EC50 [1]: 64.3 µM (active)

CC(C)=NN1C(=O)c2ccccc2NC1(C)C
EC50 [1]: > 260 µM (inactive)

N[N-][C+]1c2ccccc2N[C@H]1OC(=O)Nc1cccc(Cl)c1
AC50 (Cytochrome P450 2D6): 3.98 µM (inconclusive) | AC50 (Cytochrome P450 3A4): 5.01 µM (inconclusive) | AC50 (Cytochrome P450 2C19; read-out: AC50): 3.16 µM (inconclusive)

CN(C)c1cc(NC(=O)CN2CCCC2)c2ccccc2n1
IC50 [2]: 41.6 µM (active)

CN(C)c1ccc(/C=N/O)cc1
IC50 [2]: 21.8 µM (active)

CN(C)c1cc[n+](CC(=O)Nc2ccc(Oc3ccccc3)cc2)cc1
AC50 (INS1): 4.17 µM (active) | EC50 [3]: > 120 µM (not active) | EC50 [4]: 14.9 µM (active) | EC50 [5]: 17.1 µM (active)

COC(=O)c1cc(-c2c(C)nn(-c3ccccc3)c2C)[nH]n1
EC50 [6]: 11.8 µM (active) | EC50 [7]: 11.5 µM (active) | EC50 (H4): 11.2 µM (active) | AC50 [8]: 1.2 µM (active)

COc1ccc(C2CC(=O)c3cnc(N4CCc5ccccc54)nc3C2)cc1OC (stereo unspecified)
EC50 [1]: > 260 µM (inactive)

CCOC(=O)/C(C#N)=C\c1ccc(OCC(=O)Nc2ccc(C)cc2C)c(OC)c1
AC50 (Cytochrome P450 3A4): 10 µM (inconclusive) | AC50 (Cytochrome P450 2C9): 25.1 µM (inconclusive)

CCCc1cn(S(=O)(=O)c2ccc(OC)cc2OC)nc1N
AC50 [8]: 9.53 µM (active)

COc1ccc(-c2nc(Cn3c(SCc4ccc(F)cc4)nc4ccncc43)c(C)o2)cc1OC
EC50 [1]: 34.7 µM (active)

C[C@@H]1C(NC(=O)c2ccccc2)CC2CC1C2(C)C (stereo partly specified)
EC50 [1]: > 260 µM (inactive)

O=C(NCCC[N+]1=CC=N[C@H]1c1ccccc1)N1CCCc2nc(-c3ccc(Br)cc3)ccc21
AC50 (Cytochrome P450 3A4): 3.16 µM (inconclusive)

COc1ccc(-c2cn(CCO)nc2-c2ccc(OC)cc2)cc1
EC50 [3]: > 120 µM (not active) | EC50 [4]: > 120 µM (not active) | EC50 [5]: 16.1 µM (active)

Oc1ccc(/C(Cc2ccccn2)=N\Nc2ccccc2)c(O)c1
AC50 [8]: 0.332 µM (active)

CC(=O)/C(=C\c1ccccc1F)C(=O)c1ccccc1
AC50 (Cytochrome P450 3A4): 3.16 µM (inconclusive) | AC50 (Cytochrome P450 2C9): 6.31 µM (inconclusive) | AC50 (Cytochrome P450 1A2): 5.01 µM (inconclusive)

Cc1cnc(NC(=O)C(C)N2CCN(C)CC2)s1 (stereo unspecified)
IC50 [2]: 80.4 µM (active)

Cc1nc(SCc2cccc(F)c2)nc(O)c1C#N
AC50 [8]: 9.69 µM (active)

O=C1CSC(=S)N1/N=C/c1cccc(C(F)(F)F)c1
EC50 [1]: > 260 µM (inactive)

COc1cc(C(C)=NNC(=O)c2ccncc2)ccc1O
IC50 [2]: 49.6 µM (active)

O=C(CN(C(=O)c1csnn1)c1ccc(F)c(Cl)c1)NCc1ccc(F)cc1
EC50 [1]: > 260 µM (inactive)

Cc1ccn(Cc2nnc(S)n2Cc2ccccc2)n1
AC50 [8]: 8.59 µM (active)

CCN1CCN(CC(=O)Nc2ccc(C)c(Br)c2)CC1
IC50 [2]: 95.7 µM (active)

C=Cc1ncc(OC)c2c1[nH]c1ccccc12
EC50 [1]: 9.2 µM (active)

CCN(CCNC(=O)C1CCN(S(=O)(=O)CC)CC1)c1ccccc1
AC50 [8]: 0.013 µM (active)

CC(C)[C@@H](OCc1ccccc1)[C@H](C)/C=N\O[C@@H](C)c1cn([C@H](CO)Cc2ccccc2)nn1
AC50 (Cytochrome P450 3A4): 3.16 µM (inconclusive) and 3.98 µM (inconclusive)

O=C1[C@@H]2C=CC=CC2=NC(=S)N1CCN1CCC(=C(c2ccc(F)cc2)c2ccc(F)cc2)CC1
AC50 (Cytochrome P450 3A4): 3.16 µM (inconclusive) | AC50 (Cytochrome P450 2C19; read-out: AC50): 10 µM (inconclusive)

O=S(=O)(Nc1ccc(N2CCCCC2)cc1)c1ccc(F)c(F)c1
AC50 [8]: 4.17 µM (active)

CCCn1nc(Oc2nc(NCC)nc(NC(C)C)n2)ccc1=O
AC50 (Cytochrome P450 3A4): 0.00562 µM (inconclusive) | AC50 (Cytochrome P450 2C19; read-out: AC50): 39.8 µM (inconclusive)

Cc1ccc(S(=O)(=O)N2CCC(=O)N(C(COCc3ccc(Cl)cc3)Cc3ccccc3)CC2)cc1 (stereo unspecified)
EC50 [3]: 39.1 µM (active) | EC50 [4]: 36.4 µM (active) | EC50 [5]: > 120 µM (not active)

Cc1ccc(C)c(CN2C(=O)COc3ccccc32)c1
EC50 [1]: > 260 µM (inactive)

C=CCc1cc(C=O)cc(OC)c1OCc1ccc(Cl)cc1
AC50 (Cytochrome P450 3A4): 17.8 µM (inconclusive)

C/C(=N/NC(=O)C1CCN(S(=O)(=O)c2ccc(C)cc2)CC1)c1cccc([N+](=O)[O-])c1
EC50 [3]: 71 µM (active) | EC50 [4]: 48 µM (active) | EC50 [5]: 22.9 µM (active)

COc1cc(CC(=O)OCC(=O)Nc2ccc(N(C)C)cc2)cc(OC)c1OC
IC50 [2]: 53.3 µM (active)

COc1cc(/C=N/NC(=O)CN(Cc2ccco2)S(=O)(=O)c2ccccc2)ccc1O
IC50 [2]: 40 µM (active) | AC50 [8]: 1.13 µM (active)

CCc1nnc(NC(=O)c2ccc(S(=O)(=O)NC3CCCCC3)cc2)s1
EC50 [3]: > 120 µM (not active) | EC50 [4]: > 120 µM (not active) | EC50 [5]: > 120 µM (not active)

O=C(CN1C(=O)C2CC=CCC2C1=O)Nc1nc2ccc(F)cc2s1 (stereo unspecified)
AC50 [8]: 0.494 µM (active)

O=C(Cn1cccn1)N1CCCC(Nc2ccc(F)c(F)c2)C1 (stereo unspecified)
AC50 [8]: 1.92 µM (active)

Cc1noc(C)c1-c1cc(NCc2cccs2)ncn1
AC50 (Cytochrome P450 2D6): 20 µM (inconclusive) | AC50 (Cytochrome P450 3A4): 31.6 µM (inconclusive) | AC50 (Cytochrome P450 2C19): inconclusive

CSC1=N/C(=C\c2ccc(C)cc2)C(=O)S1
AC50 (Cytochrome P450 3A4): 39.8 µM (inconclusive)
